{"source": "paper PMC9030254", "about": "“Target Hopping from Protein Kinases to PXR: Identification of Small-Molecule Protein Kinase Inhibitors as Selective Modulators of Pregnane X Receptor from TüKIC Library” (Cells, 2022)", "assay_in_all_cases": "Kinase profiling", "type_in_all_cases": "biochemical", "key": {"[1]": {"molecular_target": "T1, VRK2 (Homo sapiens, UniProt Q86Y07)", "T1 construct": "purchased ProQinase (Freiburg, Germany)", "T1 sequence (Q86Y07 whole entry)": "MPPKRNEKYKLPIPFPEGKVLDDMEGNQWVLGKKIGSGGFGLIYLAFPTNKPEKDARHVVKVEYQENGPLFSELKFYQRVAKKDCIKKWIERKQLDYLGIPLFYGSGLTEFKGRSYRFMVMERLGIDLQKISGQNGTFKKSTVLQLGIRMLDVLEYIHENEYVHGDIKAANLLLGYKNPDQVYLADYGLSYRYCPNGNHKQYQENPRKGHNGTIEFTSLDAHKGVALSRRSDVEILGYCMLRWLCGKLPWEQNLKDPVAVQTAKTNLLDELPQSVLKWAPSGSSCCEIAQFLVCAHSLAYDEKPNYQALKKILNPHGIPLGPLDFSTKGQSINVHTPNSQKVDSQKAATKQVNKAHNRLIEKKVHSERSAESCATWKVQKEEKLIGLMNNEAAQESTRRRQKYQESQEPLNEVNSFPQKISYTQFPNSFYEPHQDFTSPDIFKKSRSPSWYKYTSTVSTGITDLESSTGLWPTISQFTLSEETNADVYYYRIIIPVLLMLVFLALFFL", "protocol": "(§1) The analysis was performed by ProQinase (Freiburg, Germany)."}, "[2]": {"molecular_target": "T2, JNK1 (Homo sapiens, UniProt P45983)", "T2 construct": "purchased ProQinase (Freiburg, Germany)", "T2 sequence (P45983 whole entry)": "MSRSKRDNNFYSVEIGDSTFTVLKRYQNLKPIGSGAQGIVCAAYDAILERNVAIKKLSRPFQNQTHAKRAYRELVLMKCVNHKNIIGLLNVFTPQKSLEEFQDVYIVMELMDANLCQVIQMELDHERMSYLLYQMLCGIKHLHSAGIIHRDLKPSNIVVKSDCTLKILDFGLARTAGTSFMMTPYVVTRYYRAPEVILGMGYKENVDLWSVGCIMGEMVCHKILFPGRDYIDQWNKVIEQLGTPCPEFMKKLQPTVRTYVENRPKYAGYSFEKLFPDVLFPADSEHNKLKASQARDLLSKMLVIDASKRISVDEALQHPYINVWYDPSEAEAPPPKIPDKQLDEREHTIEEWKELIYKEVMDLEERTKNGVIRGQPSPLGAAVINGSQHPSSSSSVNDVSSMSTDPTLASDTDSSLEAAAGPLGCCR", "protocol": "as §1"}, "[3]": {"molecular_target": "T3, PKCnu (Homo sapiens, UniProt O94806)", "T3 construct": "purchased ProQinase (Freiburg, Germany)", "T3 sequence (O94806 1-890)": "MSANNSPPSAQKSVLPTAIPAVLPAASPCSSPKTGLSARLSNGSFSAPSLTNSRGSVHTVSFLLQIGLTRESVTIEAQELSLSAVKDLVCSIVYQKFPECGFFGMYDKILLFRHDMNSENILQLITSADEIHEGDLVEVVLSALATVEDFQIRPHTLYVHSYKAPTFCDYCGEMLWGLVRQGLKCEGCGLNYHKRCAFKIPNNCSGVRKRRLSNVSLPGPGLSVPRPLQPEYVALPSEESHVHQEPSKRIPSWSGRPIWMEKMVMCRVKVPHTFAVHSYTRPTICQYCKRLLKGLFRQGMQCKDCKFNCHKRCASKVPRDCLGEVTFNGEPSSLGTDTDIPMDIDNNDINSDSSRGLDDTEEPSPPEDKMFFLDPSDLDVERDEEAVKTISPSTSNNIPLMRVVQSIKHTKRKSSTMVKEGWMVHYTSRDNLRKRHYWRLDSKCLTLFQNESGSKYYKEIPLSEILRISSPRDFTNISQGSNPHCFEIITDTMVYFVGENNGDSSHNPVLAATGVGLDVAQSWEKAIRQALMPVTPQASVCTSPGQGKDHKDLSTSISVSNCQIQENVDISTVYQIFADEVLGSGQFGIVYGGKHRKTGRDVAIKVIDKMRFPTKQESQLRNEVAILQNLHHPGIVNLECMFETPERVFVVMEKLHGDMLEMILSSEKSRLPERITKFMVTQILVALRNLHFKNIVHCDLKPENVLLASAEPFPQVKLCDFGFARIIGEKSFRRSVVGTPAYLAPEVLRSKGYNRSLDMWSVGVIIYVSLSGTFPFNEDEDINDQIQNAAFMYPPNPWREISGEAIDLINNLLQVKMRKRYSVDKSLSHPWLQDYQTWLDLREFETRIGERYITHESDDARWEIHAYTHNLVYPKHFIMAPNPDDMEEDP", "protocol": "as §1"}, "[4]": {"molecular_target": "T4, MEKK3 (Homo sapiens, UniProt Q99759)", "T4 construct": "purchased ProQinase (Freiburg, Germany)", "T4 sequence (Q99759 1-626)": "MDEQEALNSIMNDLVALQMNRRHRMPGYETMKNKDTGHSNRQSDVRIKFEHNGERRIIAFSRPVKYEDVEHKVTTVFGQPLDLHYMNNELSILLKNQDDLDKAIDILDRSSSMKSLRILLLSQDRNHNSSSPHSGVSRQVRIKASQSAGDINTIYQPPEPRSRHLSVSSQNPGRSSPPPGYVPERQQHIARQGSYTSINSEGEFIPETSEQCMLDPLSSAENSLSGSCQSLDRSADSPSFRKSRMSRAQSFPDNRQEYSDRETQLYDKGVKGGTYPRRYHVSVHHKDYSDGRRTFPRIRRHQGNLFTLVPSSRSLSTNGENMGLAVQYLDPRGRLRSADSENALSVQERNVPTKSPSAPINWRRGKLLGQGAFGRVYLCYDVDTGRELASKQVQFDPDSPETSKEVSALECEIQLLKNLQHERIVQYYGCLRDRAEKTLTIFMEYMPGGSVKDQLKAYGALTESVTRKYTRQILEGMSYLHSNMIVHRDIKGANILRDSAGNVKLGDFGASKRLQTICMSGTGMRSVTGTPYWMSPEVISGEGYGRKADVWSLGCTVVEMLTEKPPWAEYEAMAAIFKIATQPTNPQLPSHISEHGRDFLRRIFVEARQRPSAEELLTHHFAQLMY", "protocol": "as §1"}, "[5]": {"molecular_target": "T5, WNK1 (Homo sapiens, UniProt Q9H4A3)", "T5 construct": "purchased ProQinase (Freiburg, Germany)", "T5 sequence (Q9H4A3 whole entry)": "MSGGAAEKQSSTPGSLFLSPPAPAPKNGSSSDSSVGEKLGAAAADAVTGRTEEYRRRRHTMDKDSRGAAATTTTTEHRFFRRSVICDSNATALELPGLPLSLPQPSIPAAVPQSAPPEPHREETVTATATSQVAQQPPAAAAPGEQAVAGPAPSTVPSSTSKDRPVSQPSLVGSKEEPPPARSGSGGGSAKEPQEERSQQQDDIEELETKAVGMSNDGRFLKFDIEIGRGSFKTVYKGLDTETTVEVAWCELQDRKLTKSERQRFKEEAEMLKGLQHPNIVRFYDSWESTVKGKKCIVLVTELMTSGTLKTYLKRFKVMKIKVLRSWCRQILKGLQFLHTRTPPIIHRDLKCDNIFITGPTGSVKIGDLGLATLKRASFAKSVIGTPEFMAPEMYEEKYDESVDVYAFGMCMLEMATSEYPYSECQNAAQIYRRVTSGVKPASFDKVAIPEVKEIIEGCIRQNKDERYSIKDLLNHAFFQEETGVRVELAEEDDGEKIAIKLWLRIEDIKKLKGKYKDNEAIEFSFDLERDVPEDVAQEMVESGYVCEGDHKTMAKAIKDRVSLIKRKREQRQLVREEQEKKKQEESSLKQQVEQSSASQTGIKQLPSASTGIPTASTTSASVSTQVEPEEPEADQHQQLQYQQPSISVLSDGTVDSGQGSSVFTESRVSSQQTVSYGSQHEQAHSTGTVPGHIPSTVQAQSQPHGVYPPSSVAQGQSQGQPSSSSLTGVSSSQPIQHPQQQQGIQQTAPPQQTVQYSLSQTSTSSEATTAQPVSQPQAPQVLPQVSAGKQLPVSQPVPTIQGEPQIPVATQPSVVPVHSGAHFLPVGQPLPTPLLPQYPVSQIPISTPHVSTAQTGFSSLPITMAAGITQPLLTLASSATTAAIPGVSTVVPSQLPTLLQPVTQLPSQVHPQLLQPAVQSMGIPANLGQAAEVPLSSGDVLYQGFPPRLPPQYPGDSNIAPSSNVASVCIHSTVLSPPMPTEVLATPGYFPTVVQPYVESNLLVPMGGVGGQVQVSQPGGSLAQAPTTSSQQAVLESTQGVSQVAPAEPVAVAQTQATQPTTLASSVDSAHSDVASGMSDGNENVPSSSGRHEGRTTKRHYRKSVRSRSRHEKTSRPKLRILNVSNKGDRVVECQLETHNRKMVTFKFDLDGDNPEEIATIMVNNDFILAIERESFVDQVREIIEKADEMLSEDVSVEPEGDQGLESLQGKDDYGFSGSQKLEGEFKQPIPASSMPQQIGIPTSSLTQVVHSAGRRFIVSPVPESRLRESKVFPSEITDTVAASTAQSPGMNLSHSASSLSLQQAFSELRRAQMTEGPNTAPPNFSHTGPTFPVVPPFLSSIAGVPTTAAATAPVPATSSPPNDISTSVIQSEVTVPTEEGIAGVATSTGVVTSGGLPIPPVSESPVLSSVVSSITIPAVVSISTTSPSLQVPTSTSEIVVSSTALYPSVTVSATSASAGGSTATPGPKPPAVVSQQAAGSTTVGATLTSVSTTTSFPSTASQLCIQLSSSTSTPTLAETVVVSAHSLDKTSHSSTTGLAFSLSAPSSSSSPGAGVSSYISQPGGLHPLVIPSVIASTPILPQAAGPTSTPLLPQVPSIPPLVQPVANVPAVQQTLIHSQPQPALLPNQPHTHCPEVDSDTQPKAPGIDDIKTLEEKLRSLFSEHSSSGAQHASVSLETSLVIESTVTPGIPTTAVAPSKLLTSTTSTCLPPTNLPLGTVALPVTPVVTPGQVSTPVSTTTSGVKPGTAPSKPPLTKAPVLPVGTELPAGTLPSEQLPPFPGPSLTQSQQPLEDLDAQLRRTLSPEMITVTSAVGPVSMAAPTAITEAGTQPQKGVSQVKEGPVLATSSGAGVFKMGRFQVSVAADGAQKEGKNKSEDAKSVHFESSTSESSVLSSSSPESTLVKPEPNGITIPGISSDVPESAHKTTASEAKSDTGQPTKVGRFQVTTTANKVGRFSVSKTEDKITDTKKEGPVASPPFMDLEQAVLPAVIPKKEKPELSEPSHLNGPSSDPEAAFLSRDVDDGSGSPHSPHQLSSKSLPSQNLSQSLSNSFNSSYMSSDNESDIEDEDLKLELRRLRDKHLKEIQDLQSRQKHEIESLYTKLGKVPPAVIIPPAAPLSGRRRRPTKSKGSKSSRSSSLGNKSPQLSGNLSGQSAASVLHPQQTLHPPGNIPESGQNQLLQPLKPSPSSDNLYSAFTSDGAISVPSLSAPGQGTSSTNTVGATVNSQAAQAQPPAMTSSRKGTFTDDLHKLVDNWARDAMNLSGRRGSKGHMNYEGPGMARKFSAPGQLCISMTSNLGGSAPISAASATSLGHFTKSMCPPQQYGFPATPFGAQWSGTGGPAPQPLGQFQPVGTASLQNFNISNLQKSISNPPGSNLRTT", "protocol": "as §1"}, "[6]": {"molecular_target": "T6, TSK2 (Homo sapiens, UniProt Q96PF2)", "T6 construct": "purchased ProQinase (Freiburg, Germany)", "T6 sequence (Q96PF2 1-358)": "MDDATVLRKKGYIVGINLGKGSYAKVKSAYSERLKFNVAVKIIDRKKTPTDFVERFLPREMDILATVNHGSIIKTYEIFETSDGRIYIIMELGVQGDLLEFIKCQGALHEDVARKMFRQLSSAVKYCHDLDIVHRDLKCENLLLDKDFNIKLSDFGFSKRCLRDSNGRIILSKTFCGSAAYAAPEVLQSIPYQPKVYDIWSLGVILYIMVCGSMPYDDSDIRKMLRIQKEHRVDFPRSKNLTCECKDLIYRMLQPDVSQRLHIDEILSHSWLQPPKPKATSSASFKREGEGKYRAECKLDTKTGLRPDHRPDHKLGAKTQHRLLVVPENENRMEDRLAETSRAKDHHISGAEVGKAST", "protocol": "as §1"}}}
{"smiles": "O=C(Cc1ccccc1)Nc1ccc(F)c(Nc2ccc3c(c2)CCCCC3=O)c1", "note": "[Compound 100]", "values": [{"measurement": "Residual activity", "setting": "[1]; 1.0E-05 M", "result": "114 % of control"}, {"measurement": "Residual activity", "setting": "[1]; 1.0E-06 M", "result": "113 % of control"}, {"measurement": "Residual activity", "setting": "[2]; 1.0E-05 M", "result": "76 % of control"}, {"measurement": "Residual activity", "setting": "[2]; 1.0E-06 M", "result": "100 % of control"}, {"measurement": "Residual activity", "setting": "[3]; 1.0E-05 M", "result": "65 % of control"}, {"measurement": "Residual activity", "setting": "[3]; 1.0E-06 M", "result": "88 % of control"}, {"measurement": "Residual activity", "setting": "[4]; 1.0E-05 M", "result": "104 % of control"}, {"measurement": "Residual activity", "setting": "[4]; 1.0E-06 M", "result": "95 % of control"}, {"measurement": "Residual activity", "setting": "[5]; 1.0E-05 M", "result": "97 % of control"}, {"measurement": "Residual activity", "setting": "[5]; 1.0E-06 M", "result": "99 % of control"}, {"measurement": "Residual activity", "setting": "[6]; 1.0E-05 M", "result": "93 % of control"}, {"measurement": "Residual activity", "setting": "[6]; 1.0E-06 M", "result": "97 % of control"}]}
{"smiles": "O=C(Nc1ccc(F)c(Nc2ccc3c(c2)CCCCC3=O)c1)c1cccc(F)c1", "note": "[Compound 109]", "values": [{"measurement": "Residual activity", "setting": "[1]; 1.0E-05 M", "result": "108 % of control"}, {"measurement": "Residual activity", "setting": "[1]; 1.0E-06 M", "result": "107 % of control"}, {"measurement": "Residual activity", "setting": "[2]; 1.0E-05 M", "result": "81 % of control"}, {"measurement": "Residual activity", "setting": "[2]; 1.0E-06 M", "result": "90 % of control"}, {"measurement": "Residual activity", "setting": "[3]; 1.0E-05 M", "result": "69 % of control"}, {"measurement": "Residual activity", "setting": "[3]; 1.0E-06 M", "result": "88 % of control"}, {"measurement": "Residual activity", "setting": "[4]; 1.0E-05 M", "result": "102 % of control"}, {"measurement": "Residual activity", "setting": "[4]; 1.0E-06 M", "result": "94 % of control"}, {"measurement": "Residual activity", "setting": "[5]; 1.0E-05 M", "result": "94 % of control"}, {"measurement": "Residual activity", "setting": "[5]; 1.0E-06 M", "result": "93 % of control"}, {"measurement": "Residual activity", "setting": "[6]; 1.0E-05 M", "result": "99 % of control"}, {"measurement": "Residual activity", "setting": "[6]; 1.0E-06 M", "result": "88 % of control"}]}
